Laboratory results published in publication PMC8839659, “Evolution of DIMBOA-Glc O-Methyltransferases from Flavonoid O-Methyltransferases in the Grasses” (Molecules, 2022).

Legend:
Experiment in all cases: LC-MS/MS product formation
Format in all cases: biochemical
ZmBX12 = target: T1, ZmBX12 (Zea mays, UniProt S5S8L0); conditions: SAM cosubstrate 100 µM, 20 µM substrate, pH 7, 25 °C, 1 h
T1 construct: pASK-IBA37plus, N-terminal His tag, E. coli BL21(DE3), purified
T1 sequence (S5S8L0 1-370): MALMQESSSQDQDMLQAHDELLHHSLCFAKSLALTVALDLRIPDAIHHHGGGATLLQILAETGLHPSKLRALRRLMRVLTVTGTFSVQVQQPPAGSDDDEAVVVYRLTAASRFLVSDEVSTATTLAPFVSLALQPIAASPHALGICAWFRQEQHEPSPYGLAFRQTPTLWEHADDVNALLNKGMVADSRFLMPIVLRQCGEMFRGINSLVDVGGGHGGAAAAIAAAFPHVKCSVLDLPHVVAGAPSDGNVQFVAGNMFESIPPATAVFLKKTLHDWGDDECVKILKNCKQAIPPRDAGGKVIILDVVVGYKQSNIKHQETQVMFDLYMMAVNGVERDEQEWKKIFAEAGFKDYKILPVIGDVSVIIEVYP

ZmBX14 = target: T2, ZmBX14 (Zea mays, UniProt A0A1P8SEU3); conditions: SAM cosubstrate 100 µM, 20 µM substrate, pH 7, 25 °C, 1 h
T2 construct: pASK-IBA37plus, N-terminal His tag, E. coli BL21(DE3), purified
T2 sequence (A0A1P8SEU3 1-366): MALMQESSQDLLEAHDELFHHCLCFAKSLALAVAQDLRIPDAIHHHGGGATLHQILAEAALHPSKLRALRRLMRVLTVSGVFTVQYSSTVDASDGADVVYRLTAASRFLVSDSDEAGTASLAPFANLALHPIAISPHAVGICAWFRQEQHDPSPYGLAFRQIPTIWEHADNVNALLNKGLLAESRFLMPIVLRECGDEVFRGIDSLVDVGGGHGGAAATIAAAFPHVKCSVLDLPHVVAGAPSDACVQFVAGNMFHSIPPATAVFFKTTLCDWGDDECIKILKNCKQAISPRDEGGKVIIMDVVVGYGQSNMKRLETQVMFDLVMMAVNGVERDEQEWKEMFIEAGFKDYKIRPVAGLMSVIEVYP

ZnBX10 = target: T3, ZnBX10 (Zea nicaraguensis, UniProt Z9J3M6HYI4); conditions: SAM cosubstrate 100 µM, 20 µM substrate, pH 7, 25 °C, 1 h
T3 construct: full-length ORF, codon-optimized synthetic gene in pET100/D-TOPO, N-terminal His tag, E. coli BL21(DE3), purified
T3 sequence (Z9J3M6HYI4 1-373): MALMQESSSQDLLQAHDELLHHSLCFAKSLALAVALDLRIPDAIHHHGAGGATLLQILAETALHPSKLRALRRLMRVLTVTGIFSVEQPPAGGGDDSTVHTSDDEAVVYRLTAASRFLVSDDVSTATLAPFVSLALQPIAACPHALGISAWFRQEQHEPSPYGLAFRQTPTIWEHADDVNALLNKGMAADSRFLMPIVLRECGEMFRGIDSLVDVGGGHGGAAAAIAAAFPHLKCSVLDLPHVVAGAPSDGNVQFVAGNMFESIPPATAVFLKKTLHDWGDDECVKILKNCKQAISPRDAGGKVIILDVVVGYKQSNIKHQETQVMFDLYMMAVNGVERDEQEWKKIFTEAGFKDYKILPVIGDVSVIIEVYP

ZmBX10 = target: T4, ZmBX10 (Zea mays, UniProt S5S768); conditions: SAM cosubstrate 100 µM; 20 µM substrate; pH 7; 25 °C; 1 h; product isokaempferide
T4 construct: pASK-IBA37plus, N-terminal His tag, E. coli BL21(DE3), purified
T4 sequence (S5S768 1-375): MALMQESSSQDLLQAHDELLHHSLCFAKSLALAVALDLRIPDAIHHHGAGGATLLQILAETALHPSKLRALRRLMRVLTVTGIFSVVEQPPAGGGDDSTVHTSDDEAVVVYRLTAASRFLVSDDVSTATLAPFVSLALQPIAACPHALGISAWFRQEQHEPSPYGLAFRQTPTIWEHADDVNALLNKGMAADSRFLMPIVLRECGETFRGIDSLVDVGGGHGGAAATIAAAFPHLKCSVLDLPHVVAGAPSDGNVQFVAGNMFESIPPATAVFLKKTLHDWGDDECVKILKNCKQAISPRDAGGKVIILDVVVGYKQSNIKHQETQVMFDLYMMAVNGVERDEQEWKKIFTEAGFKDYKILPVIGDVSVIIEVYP

ZmBX11 = target: T5, ZmBX11 (Zea mays, UniProt S5RK83); conditions: SAM cosubstrate 100 µM; 20 µM substrate; pH 7; 25 °C; 1 h; product isokaempferide
T5 construct: pASK-IBA37plus, N-terminal His tag, E. coli BL21(DE3), purified
T5 sequence (S5RK83 1-375): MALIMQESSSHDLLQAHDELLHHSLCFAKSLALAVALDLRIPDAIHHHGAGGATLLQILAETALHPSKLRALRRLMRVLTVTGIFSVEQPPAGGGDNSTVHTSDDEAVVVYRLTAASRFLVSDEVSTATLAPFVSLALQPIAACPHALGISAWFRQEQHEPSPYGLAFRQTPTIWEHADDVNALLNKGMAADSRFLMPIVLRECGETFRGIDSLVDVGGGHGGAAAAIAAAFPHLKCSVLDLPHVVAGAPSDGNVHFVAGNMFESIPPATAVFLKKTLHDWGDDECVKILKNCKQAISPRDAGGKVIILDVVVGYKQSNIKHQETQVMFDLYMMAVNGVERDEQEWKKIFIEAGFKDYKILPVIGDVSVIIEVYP

SbFOMT2 = target: T6, SbFOMT2 (Sorghum bicolor, UniProt C5WYJ6); conditions: SAM cosubstrate 100 µM; 20 µM substrate; pH 7; 25 °C; 1 h; flavonoid 5-O-methylation, trace isokaempferide
T6 construct: gene SORBI_3001G354400; full-length ORF from leaf cDNA, in pET100/D-TOPO or pASK-IBA37plus, N-terminal His tag, E. coli BL21(DE3), purified
T6 sequence (C5WYJ6 1-365): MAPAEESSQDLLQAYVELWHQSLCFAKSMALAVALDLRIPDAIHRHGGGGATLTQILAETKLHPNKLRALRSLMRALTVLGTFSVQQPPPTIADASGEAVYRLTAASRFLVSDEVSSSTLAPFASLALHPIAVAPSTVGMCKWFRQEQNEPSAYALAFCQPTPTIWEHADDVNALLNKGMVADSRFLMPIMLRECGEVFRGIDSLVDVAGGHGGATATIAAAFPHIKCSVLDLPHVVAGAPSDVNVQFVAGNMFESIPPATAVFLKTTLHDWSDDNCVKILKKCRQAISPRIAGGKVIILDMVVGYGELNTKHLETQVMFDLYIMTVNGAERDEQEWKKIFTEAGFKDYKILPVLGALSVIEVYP

[1] = product HDMBOA-Glc, positive control

Compound | LC-MS/MS product formation (ZmBX12; [1]) | LC-MS/MS product formation (ZmBX14; [1]) | LC-MS/MS product formation (ZnBX10; product HDMBOA-Glc) | LC-MS/MS product formation (ZmBX12; product isokaempferide) | LC-MS/MS product formation (ZmBX14; lowest activity of the maize BX OMTs) | LC-MS/MS product formation (ZmBX10) | LC-MS/MS product formation (ZmBX11) | LC-MS/MS product formation (ZnBX10; product isokaempferide) | LC-MS/MS product formation (SbFOMT2)
COc1ccc2c(c1)O[C@H](O[C@@H]1O[C@H](CO)[C@@H](O)[C@H](O)[C@H]1O)C(=O)N2O [DIMBOA-Glc, 2,4-dihydroxy-7-methoxy-1,4-benzoxazin-3-one glucoside] | Besides ZmBX14 and ZmBX12, ZnBX10 also converted DIMBOA-Glc to HDMBOA-Glc | Besides ZmBX14 and ZmBX12, ZnBX10 also converted DIMBOA-Glc to HDMBOA-Glc | ZnBX10 also converted DIMBOA-Glc to HDMBOA-Glc | – | – | – | – | – | –
O=c1c(O)c(-c2ccc(O)cc2)oc2cc(O)cc(O)c12 [kaempferol] | – | – | – | with ZmBX12 as the most active OMT, followed by ZmBX10, ZmBX11, and ZmBX14 | with ZmBX12 as the most active OMT, followed by ZmBX10, ZmBX11, and ZmBX14 | ZmBX10-12 and ZnBX10 produced substantial amounts of the 3-O-methylated derivative isokaempferide | ZmBX10-12 and ZnBX10 produced substantial amounts of the 3-O-methylated derivative isokaempferide | ZmBX10-12 and ZnBX10 produced substantial amounts of the 3-O-methylated derivative isokaempferide | ZmFOMT2 and SbFOMT2 produced only trace amounts of this compound
